From article PMC11590367, “Characterization of novel small molecule inhibitors of estrogen receptor-activation function 2 (ER-AF2)” (Breast Cancer Research : BCR, 2024)

Key:
[1] = tested on: ER target genes (cyclinD1, CDC2, E2F, PR, pS2) in TamR3 cells; assay: Real-time PCR of ER target genes, TamR3; type: cell-based; details: 1 µM Tamoxifen
Procedure: Total RNA was extracted using TRIzol, 72 h post-treatment. cDNA synthesis was conducted using the Maxima First Strand cDNA Synthesis Kit for RT-qPCR (Thermo K1641) according to the manufacturer’s protocol. RT-PCR was conducted on the QuantStudio 7 Pro instrument and expression fold change was calculated using 2−ΔΔCt method normalized to 18s.

[2] = Precipitation in MST assay buffer; type: physicochemical; details: 2% DMSO, 0.03 to 1000 µM
Procedure: MST was used to validate the direct binding and measure the binding affinities between the lead compounds and the recombinant ER-LBD. ER-LBD was labeled with red fluorescent dye using a Protein Labeling Kit RED-NHS 2nd Generation (Nanotemper MO-L011) according to the manufacturer’s protocol. The compounds were serially diluted 1:2 in 100% DMSO from 50 to 0.0015 mM, then added to 10 nM of labeled ER protein in the assay buffer (25 mM Tris, pH 8.4, 150 mM NaCl, 20 µM E2, 0.1 mM PMSF, 0.05% Tween20) at final concentrations of 0.03 to 1000 µM. Recombinant proteins in cell free assays are not affected by DMSO concentrations up to 10%. A final concentration of 2% DMSO was chosen for MST as the compounds required this concentration to be soluble in the assay buffer. […] The corresponding data points were removed from the analysis. […] Each protein/compound mixture was then loaded into Monolith Premium Capillaries (Nanotemper MO-K025). All assays were conducted with medium MST power and 20% excitation power. Data analysis and Kd estimation were performed with the MO Affinity Analysis software from Nanotemper.

[3] = tested on: ER transcriptional activity in T47D-KBluc cells; assay: Luciferase transcriptional assay; type: cell-based; details: ER transcription, luciferase reporter, 1 nM E2, 24 h treatment, ± SD of 3 biological replicates
Procedure: T47D-KBluc cells or PC3m-luc cells were starved for 72 h and then seeded into 96-well plates at 20,000 or 5,000 cells/well, respectively. […] One day post-treatment, the media was removed, and cells were lysed with 65 µl of 1x passive lysis buffer (Promega #E1910). Following two freeze-thaw cycles, 20 µl of lysate were transferred to a white, 96-well flat bottom plate (Corning Life Sciences Cat#3912). 50 µl of luciferase reagent (Promega. Luciferase Assay System E1500) was added to each well, and luminescence was measured using the TECAN M200 Pro plate reader. E2 (1 nM), 4-hydroxytamoxifen (OHT) (4 nM), and DMSO (0.2%) were used as controls for this assay. […] E2 alone represented 100% transcriptional activation, while the 0.2% DMSO control represented 0% transcriptional activity. OHT was used as a positive control for an active compound.

T47D cells = assay: PrestoBlue viability assay, T47D; type: cell-based; details: 1 nM E2, 72 h treatment, ± SD of 3 biological replicates
Procedure: (§1) T47D, MCF7, TamR3, and MDA-MB-231 cells were starved for 72 h and then seeded into black clear-bottom 96-well plates (Corning Life Sciences Cat#3904) at 20,000 cells/well (T47D, MCF7, TamR3) or 5,000 cells/well (MDA-MB-231). […] 20 µl of PrestoBlue Cell Viability Reagent (Thermo Fisher A13262) was added to each well and incubated at 37 °C for 1 h. Fluorescence intensity was measured using the TECAN F500 plate reader with emission and excitation wavelengths of […], respectively.

MCF7 cells = assay: PrestoBlue viability assay, MCF7; type: cell-based; details: Homo sapiens, 1 nM E2, 72 h treatment, ± SD of 3 biological replicates
Procedure: as §1

TamR3 cells = assay: PrestoBlue viability assay, TamR3; type: cell-based; details: 1 nM E2, 72 h treatment, ± SD of 3 biological replicates
Procedure: as §1

MDA-MB-231 cells = assay: PrestoBlue viability assay, MDA-MB-231; type: cell-based; details: dose response 50 to 0.01 µM, 1 nM E2
Procedure: as §1

[4] = biological target: T1, ER-LBD AF2 site / PGC1a coactivator peptide (Homo sapiens, UniProt P03372); assay: TR-FRET coactivator peptide displacement (LanthaScreen ER alpha Coactivator Assay); type: binding; details: 4 nM E2, 4 h
T1 construct: The assay utilizes GST-tagged ER-LBD (final concentration, 7.3 nM); purchased Thermo Fisher A15885
Procedure: We performed a TR-FRET assay to assess whether compounds displace the AF2 peptide from the ER-AF2 pocket using the LanthaScreen TR-FRET ER alpha Coactivator Assay Kit (Thermo Fisher, A15885). The assay utilizes GST-tagged ER-LBD (final concentration, 7.3 nM), terbium-labeled GST-antibody (final concentration, 5 nM), and a fluorescein-coactivator peptide, PGC1a (final concentration, 250 nM) in the presence of 4 nM E2. The GST-antibody, ER protein and fluorescent peptide mixture was incubated with four concentrations of compound (500 µM, 167 µM, 56 µM, 18.5 µM) for 4 h. The sample was excited at 340 nm and read at 520 nm on a Syngergy Neo2 plate reader (BioTek).

[5] = biological target: T2, recombinant ER-LBD (residues 298–554) (Homo sapiens, UniProt P03372); assay: Microscale thermophoresis (MST) direct binding; details: averaged from three independent assays, 20 µM E2 in buffer, read-out: Kd (binding affinity to ER-LBD)
T2 construct: The ER-LBD (residues 298–554) was cloned into pET28a bacterial expression plasmid; His-tag (N); made in house; host or cells: E. coli BL21-DE3 (with pRARE)
Procedure: The ER-LBD (residues 298–554) was cloned into pET28a bacterial expression plasmid with an N-terminal His-tag. pET28a-His-ER and pRARE were transformed into E. coli (BL21-DE3). Bacteria were grown at 37 [drawing 1] C overnight, and then diluted 1:20 the following day in LB media and grown at 37 [drawing 2] C until the OD600 reached 0.5. Protein expression was induced with 1 mM IPTG, and 50 µM E2 was added to the media. Cells were then grown for 5 h at 25 °C. Bacterial pellets were collected by centrifugation at 13,000 rpm for 7 min. Pellets were resuspended in lysis buffer (25 mM Tris, pH 8.4, 150 mM NaCl, 20 µM E2, 1 mM DTT, 0.1 mM PMSF, cOmplete protease inhibitor (Roche)) then sonicated and centrifuged to obtain the soluble extracts. ER-LBD was purified using affinity chromatography with Ni-NTA agarose resin. The presence of the ER-LBD in eluted fractions was confirmed by SDS-PAGE and validated by mass spectrometry. The eluted protein was further purified by size exclusion chromatography (s75), and fractions containing the ER-LBD protein were pooled and concentrated using Amicon Ultra centrifugal filters (3 K MWCO).
MST was used to validate the direct binding and measure the binding affinities between the lead compounds and the recombinant ER-LBD. […]

[6] = biological target: T3, full length ERɑ protein, estrogen binding site (EBS) (Homo sapiens, UniProt P03372); assay: E2-displacement assay (PolarScreen fluorescence polarization); details: fluorescence polarization, 1, 10 and 50 µM
T3 construct: full length ERɑ protein was incubated with Fluormone ES2 Green; purchased ThermoFisher A15882
Procedure: The E2 displacement assay was performed using the PolarScreen Estrogen Receptor Alpha Competitor Assay, Green (ThermoFisher A15882) according to the manufacturer’s protocol. In brief, full length ERɑ protein was incubated with Fluormone ES2 Green (Fluormone Tracer) in the ES2 screening buffer in a black bottom 384-well plate (Corning 3573) in the presence of either 1, 10, or 50 µM of test compounds. The final concentrations in the assay were 2% DMSO (consistent with the MST assay), 4.5 nM fluormone, and 40 nM ERɑ protein. 20 µl of the mixture were added to each well, with triplicates performed for each condition. The plate was incubated in the dark at room temperature for 4 h before fluorescence polarization was measured using a Synergy Neo2 plate reader (BioTek).

[7] = design: method as in earlier work; details: cited from earlier work
[8] = design: method as in earlier work; details: cited from earlier work; remark: listed apart in the source
ER D538G/F404L mutant = ER D538G/F404L mutant (Homo sapiens, UniProt P03372, D538G/F404L); assay: Transcriptional activity of fulvestrant resistant mutant ER; type: cell-based; details: compared to DMSO
[9] = biological target: T4, ER-LBD (residues 298–554), recombinant, N-terminal His-tag (UniProt P03372 298-554, red fluorescent dye (Protein Labeling Kit RED-NHS 2nd Generation)); assay: MST; 10 nM RED-NHS labelled ER-LBD, ligand titrated; 25 mM Tris pH 8.4, 150 mM NaCl, 20 µM E2, 0.1 mM PMSF, 0.05% Tween20; medium MST power, 20% excitation power; Kd averaged from three independent assays; details: both partners purified
T4 construct: Kept with 20 µM E2 in lysis and assay buffers; also called recombinant ER-LBD; source: E. coli (BL21-DE3) with pRARE, purified (Ni-NTA, size exclusion s75), 50 µM E2 added during expression
T4 sequence (looked up): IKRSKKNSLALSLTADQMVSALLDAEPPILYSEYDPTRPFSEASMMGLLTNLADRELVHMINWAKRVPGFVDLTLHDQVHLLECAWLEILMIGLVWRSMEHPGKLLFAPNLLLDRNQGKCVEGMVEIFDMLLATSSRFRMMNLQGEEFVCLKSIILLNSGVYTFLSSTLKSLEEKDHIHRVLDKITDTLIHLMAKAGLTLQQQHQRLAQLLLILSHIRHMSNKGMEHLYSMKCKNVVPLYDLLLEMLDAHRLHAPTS

T3 sequence (P03372 whole entry): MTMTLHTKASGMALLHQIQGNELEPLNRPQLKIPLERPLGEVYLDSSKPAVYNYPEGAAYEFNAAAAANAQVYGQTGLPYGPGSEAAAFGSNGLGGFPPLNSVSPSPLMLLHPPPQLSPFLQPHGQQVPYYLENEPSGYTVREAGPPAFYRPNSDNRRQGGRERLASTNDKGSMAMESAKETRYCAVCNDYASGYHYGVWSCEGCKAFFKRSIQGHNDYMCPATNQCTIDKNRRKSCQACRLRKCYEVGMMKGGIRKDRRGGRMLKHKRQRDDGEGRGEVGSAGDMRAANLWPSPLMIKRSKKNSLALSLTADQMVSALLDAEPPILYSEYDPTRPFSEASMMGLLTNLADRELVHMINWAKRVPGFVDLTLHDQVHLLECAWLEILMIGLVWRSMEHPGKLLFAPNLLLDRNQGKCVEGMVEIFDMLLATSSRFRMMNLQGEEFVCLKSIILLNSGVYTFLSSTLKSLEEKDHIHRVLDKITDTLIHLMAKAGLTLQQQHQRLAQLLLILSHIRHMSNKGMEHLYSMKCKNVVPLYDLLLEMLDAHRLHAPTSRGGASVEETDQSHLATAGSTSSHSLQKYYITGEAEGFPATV
Sequence of ER D538G/F404L mutant (P03372 whole entry F404L/D538G, the tested form may be a part): as the sequence (P03372 whole entry) above, with F404L, D538G counted along it

| Molecule | Precipitation after addition of ER protein [2] | IC50 ([3]; 24 h) | IC50 (T47D cells; Homo sapiens, T47D, 72 h) | IC50 (MCF7 cells) | IC50 (TamR3 cells) | further results |
| --- | --- | --- | --- | --- | --- | --- |
| CC/C(=C(\c1ccccc1)c1ccc(OCCN(C)C)cc1)c1ccccc1 [Tamoxifen, tamoxifen, reference compound] |  |  |  |  |  | ER target gene expression in TamR3, tamoxifen alone [1]: increased target gene expression |
| CCNC(=O)c1cccc(CNCc2cnc3c(C)cccn23)c1 [VPC-260709] | exhibited precipitation at 1000 and 500 µM | 13.8 ± 2.92 µM | 6.37 ± 3.3 µM |  |  |  |
| Cc1cccn2c(CNCc3ccc(F)cc3F)cnc12 [VPC-260711] | exhibited precipitation at 1000 and 500 µM | 6.4 µM | 5.4 ± 1.23 µM | 18 ± 1.3 µM | 16.8 ± 2.07 µM | IC50 [3]: 6.36 ± 0.59 µM; Effect on viability of ER-negative MDA-MB-231 cells (MDA-MB-231 cells): minimal impact |
| Cc1cccn2c(CNCc3cccc(Br)c3)cnc12 [VPC-260726] |  | 17.9 ± 3.51 µM | 11.2 ± 5.67 µM | 16.6 ± 1.47 µM | 13.9 ± 1.84 µM |  |
| Cc1cccc(Oc2ccc(NC(=O)N[C@H]3C[C@H](CO)C3)cn2)c1C [VPC-260927] |  | 10.8 ± 3.85 µM | 13.8 ± 4.23 µM | 19.5 ± 2.16 µM | 24.4 ± 2.48 µM | Concentration at which a reduction of the FRET signal (PGC1⍺ peptide displacement) was observed [4]: 500 µM; Kd [5]: 13.2 ± 10.5 µM; Displacement of fluormone (fluorescent E2) from EBS [6]: displaces the fluormone at 1, 10 and 50 µM |
| O=C(NCc1ccc2occc2c1)Nc1ccc(OCC2CCCO2)cc1 (stereo not drawn) [VPC-260936] | exhibited precipitation at 1000 and 500 µM | 27.2 ± 6.44 µM | 10.6 ± 4.27 µM |  | 21.8 ± 6.51 µM |  |
| CC1CC(NC(=O)Nc2ccc(Oc3cccc(F)c3F)nc2)C(=O)N1c1cnn(C)c1 (stereo not drawn) [VPC-260950] |  | 12.4 ± 4.57 µM | 16 ± 6.53 µM |  | 21.4 ± 3.66 µM |  |
| Cc1cccc(Oc2ccc(NC(=O)N3CCC(c4nnc[nH]4)C3)cn2)c1C (stereo not drawn) [VPC-260955] | exhibited precipitation at 1000 and 500 µM | 17.4 ± 1.12 µM | 18.6 ± 1.13 µM |  | 28.7 ± 1.3 µM |  |
| O=C(Nc1cccc(CNCc2cnc3ccccn23)c1)C1CCCO1 (stereo not drawn) [VPC-260961] |  | 7.26 ± 0.73 µM |  | 18.7 ± 1.18 µM | 18.7 ± 1.15 µM |  |
| Cc1cccn2c(CNCc3cccc(NC(=O)[C@@H]4CCCO4)c3)cnc12 [VPC-260962] |  | 10.8 µM | 8.9 µM | 16.4 ± 3.59 µM | 27.8 ± 7.99 µM | IC50 [3]: 10.8 ± 2.92 µM; IC50 (T47D cells): 8.92 ± 2.81 µM; Effect on viability of ER-negative MDA-MB-231 cells (MDA-MB-231 cells): minimal impact |
| Cc1cccn2c(CNCc3cccc(NC(=O)[C@H]4CCCO4)c3)cnc12 [VPC-260963] |  | 11.9 ± 3.62 µM | 19 ± 5.66 µM | 21.1 ± 4.67 µM | 16.2 ± 3.38 µM |  |
| C[C@]12CC[C@@H]3c4ccc(O)cc4C[C@@H](CCCCCCCCC[S+]([O-])CCCC(F)(F)C(F)(F)F)[C@H]3[C@@H]1CC[C@@H]2O (stereo partly drawn) [fulvestrant] |  |  |  |  |  | Oral bioavailability [7]: not orally bioavailable; Solubility [8]: poor solubility; Transcriptional activity of mutant ER D538G/F404L (ER D538G/F404L mutant): increased the transcriptional activity |
| EAEEPSLLKKLLLAPANTQ [coactivator peptide PGC1α (control peptide of the MST assay)] |  |  |  |  |  | Kd [9]: 16.6 ± 2.4 µM |
